This experiment concerns the target T1, human PKCθ full length enzyme (Homo sapiens, UniProt Q04759).
T1 construct: human PKCθ full length enzyme (Panvera Cat# P2996); purchased Panvera P2996
Nature of the experiment: PKCθ IMAP assay (fluorescence polarization). The class given is biochemical. To be noted: human PKCθ full length enzyme, IMAP; average value; read-out: IC50 PKCθ IMAP. How it is done: The reaction buffer was prepared by diluting the 5× stock reaction buffer and adding DTT to obtain a concentration of 3.0 mM. […] The final concentration of compound was 2× and 10% DMSO. DMSO was added to the rest of the master mix to increase the concentration to 10%. 10 μl of the master mix containing 10% DMSO was added to the rest of the wells on the plate except the 2nd column. 20 μl was transferred from the first column to the 2nd column. The compounds were serially diluted in 2:1 ratio starting from the 2nd column. A 2× ([…]) PKCθ solution was made in the reaction buffer. 10 μl of the PKCθ solution was added to every well to achieve these final concentrations: PKCθ—1 nM; ATP—6 μM; peptide—100 nM; DMSO—5%. Samples were incubated for 25 minutes at room temperature. The binding reagent was prepared by diluting the beads in 1× binding buffer to 800:1. 50 μl of the binding reagent was added to every well and incubated for 20 minutes. FP was measured using Envision2100 (PerkinElmer Life Sciences). Wells with no ATPs and wells with no enzymes were used as controls.
On the technique in general: Fluorescence polarisation rises when a labelled molecule tumbles more slowly, as on binding a larger partner.

T1 sequence (Q04759 whole entry): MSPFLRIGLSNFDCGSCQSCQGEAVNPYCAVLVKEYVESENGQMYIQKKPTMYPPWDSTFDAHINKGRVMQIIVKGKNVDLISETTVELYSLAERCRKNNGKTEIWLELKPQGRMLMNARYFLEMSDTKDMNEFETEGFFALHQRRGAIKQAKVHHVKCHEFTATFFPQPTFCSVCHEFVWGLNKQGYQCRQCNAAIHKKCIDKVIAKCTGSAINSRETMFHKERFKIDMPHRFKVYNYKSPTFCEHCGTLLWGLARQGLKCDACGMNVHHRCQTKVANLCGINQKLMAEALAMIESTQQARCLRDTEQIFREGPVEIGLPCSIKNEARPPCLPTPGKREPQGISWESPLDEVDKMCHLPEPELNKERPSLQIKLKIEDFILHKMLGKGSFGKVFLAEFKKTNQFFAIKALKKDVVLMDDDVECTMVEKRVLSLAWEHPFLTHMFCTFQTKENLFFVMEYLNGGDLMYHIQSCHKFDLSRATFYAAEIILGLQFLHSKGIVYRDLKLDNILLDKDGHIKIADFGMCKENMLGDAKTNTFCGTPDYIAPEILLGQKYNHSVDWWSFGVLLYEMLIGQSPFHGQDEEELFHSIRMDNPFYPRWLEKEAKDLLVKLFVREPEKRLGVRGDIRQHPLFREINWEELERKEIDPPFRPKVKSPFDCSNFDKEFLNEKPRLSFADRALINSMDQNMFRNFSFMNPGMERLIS

Take “4-(1H-indol-4-ylamino)-5-(4-methoxy-3-{2-[(3-pyrrolidin-1-ylpropyl)amino]ethoxy}phenyl)nicotinonitrile [Compound 340]”: the IC50 (usually the concentration needed to halve the response being measured) worked out at 8 nM.

For “4-(1H-indol-4-ylamino)-5-(4-{2-[(3-phenylpropyl)amino]ethoxy}phenyl)nicotinonitrile [Compound 347]”, the IC50 stood at 4 nM.

Regarding “4-(1H-indol-4-ylamino)-5-[4-methoxy-3-(2-{[2-(1-methylpyrrolidin-2-yl)ethyl]amino}ethoxy)phenyl]nicotinonitrile [Compound 341]”, the IC50 stood at 3 nM.

Turning to “4-[(4-methyl-1H-indol-5-yl)amino]-5-(5-{[(3-phenylpropyl)amino]methyl}-2-furyl)nicotinonitrile [Compound 409]”, the IC50 was 27 nM.

“4-[(4-methyl-1H-indol-5-yl)amino]-5-[5-(pyrrolidin-1-ylmethyl)-2-furyl]nicotinonitrile [Compound 410]”: the IC50 was found to be 35 nM.

For the compound “4-[(4-methyl-1H-indol-5-yl)amino]-5-[5-(thiomorpholin-4-ylmethyl)-2-furyl]nicotinonitrile [Compound 411]”, the IC50 was 8 nM.

In the case of “5-(1-benzofuran-3-yl)-4-(1H-indol-4-ylamino)nicotinonitrile [Compound 352]”, the IC50 was found to be 20 nM.

For “5-(2,4-dimethoxyphenyl)-4-(1H-indol-4-ylamino)nicotinonitrile [Compound 337]”, the IC50 came out at 100 nM.

For the compound “5-{5-[(cyclohexylamino)methyl]-1-benzofuran-2-yl}-4-[(4-methyl-1H-indol-5-yl)amino]nicotinonitrile [Compound 387]”, the IC50 amounted to 1 nM.

For the compound `COc1ccc(-c2cncc(C#N)c2NC[C@H]2CCC[C@@H](CN)C2)cc1OC` (relative stereo) [Compound 443, 4-({[cis-3-(aminomethyl)cyclohexyl]methyl}amino)-5-(3,4-dimethoxyphenyl)nicotinonitrile], the IC50 amounted to 1130 nM.

In the case of `COc1ccc(-c2cncc(C#N)c2Nc2ccc3c(c2)CCC3)cc1OC` [Compound 107, 4-(2,3-dihydro-1H-inden-5-ylamino)-5-(3,4-dimethoxyphenyl)nicotinonitrile], the IC50 was found to be 9320 nM.

Consider `COc1ccc(-c2cncc(C#N)c2Nc2ccc3[nH]c(C)cc3c2)cc1OC` [Compound 110, 5-(3,4-dimethoxyphenyl)-4-[(2-methyl-1H-indol-5-yl)amino]nicotinonitrile], for which the IC50 worked out at 65 nM.

`COc1ccc(-c2cncc(C#N)c2Nc2ccc3c(c2)OCO3)cc1OC` [Compound 111, 4-(1,3-benzodioxol-5-ylamino)-5-(3,4-dimethoxyphenyl)nicotinonitrile]: the half-inhibitory concentration (IC50) is 580 nM.

Regarding `COc1ccc(-c2cncc(C#N)c2Nc2ccc3ccccc3c2)cc1OC` [Compound 112, 5-(3,4-dimethoxyphenyl)-4-(2-naphthylamino)nicotinonitrile], the IC50 amounted to 1130 nM.

`N#Cc1cncc(-c2cccc(Br)c2)c1Nc1ccc2[nH]ccc2c1` [Compound 113, 5-(3-bromophenyl)-4-(1H-indol-5-ylamino)nicotinonitrile]: the IC50 amounted to 50 nM.

For `N#Cc1cncc(-c2cccc(Br)c2)c1Nc1cccc2[nH]ccc12` [Compound 114, 5-(3-bromophenyl)-4-(1H-indol-4-ylamino)nicotinonitrile], the IC50 was 2 nM.

As to `N#Cc1cncc(-c2ccccc2Br)c1Nc1ccc2[nH]ccc2c1` [Compound 115, 5-(2-bromophenyl)-4-(1H-indol-5-ylamino)nicotinonitrile], the concentration for half-maximal inhibition (IC50) was 310 nM.

Consider `N#Cc1cncc(-c2ccc(Br)cc2)c1Nc1ccc2[nH]ccc2c1` [Compound 116, 5-(4-bromophenyl)-4-(1H-indol-5-ylamino)nicotinonitrile], for which the IC50 worked out at 70 nM.

In the case of `N#Cc1cncc(-c2cccc(-c3ccc(N)cc3)c2)c1Nc1ccc2[nH]ccc2c1` [Compound 119, 5-(4′-aminobiphenyl-3-yl)-4-(1H-indol-5-ylamino)nicotinonitrile], the IC50 stood at 300 nM.

For the compound `N#Cc1cncc(-c2cccc(-c3ccc(C(=O)NC4CCCC4)cc3)c2)c1Nc1ccc2[nH]ccc2c1` [Compound 123, 3′-[5-cyano-4-(1H-indol-5-ylamino)pyridin-3-yl]-N-cyclopentylbiphenyl-4-carboxamide], the IC50 stood at 180 nM.

As for `N#Cc1cncc(-c2cccc(-c3cc[nH]c3)c2)c1Nc1ccc2[nH]ccc2c1` [Compound 124, 4-(1H-indol-5-ylamino)-5-[3-(1H-pyrrol-3-yl)phenyl]nicotinonitrile], the IC50 is 1100 nM.

On to `Cc1ccc(-c2cccc(-c3cncc(C#N)c3Nc3ccc4[nH]ccc4c3)c2)cc1` [Compound 128, 4-(1H-indol-5-ylamino)-5-(4′-methylbiphenyl-3-yl)nicotinonitrile], for which the IC50 worked out at 130 nM.

Take `N#Cc1cccc(-c2cccc(-c3cncc(C#N)c3Nc3ccc4[nH]ccc4c3)c2)c1` [Compound 132, 5-(3′-cyanobiphenyl-3-yl)-4-(1H-indol-5-ylamino)nicotinonitrile]: the IC50 was found to be 110 nM.

As for `N#Cc1cncc(-c2cccc(-c3cccs3)c2)c1Nc1ccc2[nH]ccc2c1` [Compound 136, 4-(1H-indol-5-ylamino)-5-[3-(2-thienyl)phenyl]nicotinonitrile], the IC50 worked out at 130 nM.

For `Cc1csc(-c2cccc(-c3cncc(C#N)c3Nc3ccc4[nH]ccc4c3)c2)c1` [Compound 139, 4-(1H-indol-5-ylamino)-5-[3-(4-methyl-2-thienyl)phenyl]nicotinonitrile], the IC50 turned out to be 250 nM.

`CC(=O)c1ccc(-c2cccc(-c3cncc(C#N)c3Nc3ccc4[nH]ccc4c3)c2)s1` [Compound 140, 5-[3-(5-acetyl-2-thienyl)phenyl]-4-(1H-indol-5-ylamino)nicotinonitrile]: the IC50 was 110 nM.

As to `N#Cc1cncc(-c2cccc(-c3ccoc3)c2)c1Nc1ccc2[nH]ccc2c1` [Compound 142, 5-[3-(3-furyl)phenyl]-4-(1H-indol-5-ylamino)nicotinonitrile], the IC50 amounted to 120 nM.

Regarding `N#Cc1cncc(-c2cccc(-c3cccs3)c2)c1Nc1cccc2[nH]ccc12` [Compound 147, 4-(1H-indol-4-ylamino)-5-[3-(2-thienyl)phenyl]nicotinonitrile], the IC50 stood at 20 nM.

For `N#Cc1cncc(-c2cccc(-c3ccc(C(=O)NC4CCCC4)cc3)c2)c1Nc1cccc2[nH]ccc12` [Compound 148, 3′-[5-cyano-4-(1H-indol-4-ylamino)pyridin-3-yl]-N-cyclopentylbiphenyl-4-carboxamide], the IC50 worked out at 40 nM.

As for `N#Cc1cncc(-c2cccc(-c3ccc(C(=O)N4CCCC4)cc3)c2)c1Nc1cccc2[nH]ccc12` [Compound 149, 4-(1H-indol-4-ylamino)-5-[4′-(pyrrolidin-1-ylcarbonyl)biphenyl-3-yl]nicotinonitrile], the IC50 was determined as 70 nM.

`N#Cc1cncc(-c2cccc(-c3ccc(C=O)s3)c2)c1Nc1ccc2[nH]ccc2c1` [Compound 150, 5-[3-(5-formyl-2-thienyl)phenyl]-4-(1H-indol-5-ylamino)nicotinonitrile]: the IC50 turned out to be 120 nM.

Consider `COCCOc1cccc(-c2cncc(C#N)c2Nc2cccc3[nH]ccc23)c1` [Compound 164, 4-(1H-indol-4-ylamino)-5-[3-(2-methoxyethoxy)phenyl]nicotinonitrile], for which the IC50 is 30 nM.

Turning to `CN1CCN(CCOc2cccc(-c3cncc(C#N)c3Nc3cccc4[nH]ccc34)c2)CC1` [Compound 168, 4-(1H-indol-4-ylamino)-5-{3-[2-(4-methylpiperazin-1-yl)ethoxy]phenyl}nicotinonitrile], the IC50 came to 20 nM.

For `N#Cc1cncc(-c2cccc(OCCN3CCCCC3)c2)c1Nc1cccc2[nH]ccc12` [Compound 171, 4-(1H-indol-4-ylamino)-5-[3-(2-piperidin-1-ylethoxy)phenyl]nicotinonitrile], the IC50 is 50 nM.

Turning to `N#Cc1cncc(-c2cccc(OCCNCCO)c2)c1Nc1ccc2[nH]ccc2c1` [Compound 176, 5-(3-{2-[(2-hydroxyethyl)amino]ethoxy}phenyl)-4-(1H-indol-5-ylamino)nicotinonitrile], the IC50 worked out at 30 nM.

`N#Cc1cncc(-c2cccc(OCCNCCN3CCCC3)c2)c1Nc1ccc2[nH]ccc2c1` [Compound 177, 4-(1H-indol-5-ylamino)-5-(3-{2-[(2-pyrrolidin-1-ylethyl)amino]ethoxy}phenyl)nicotinonitrile]: the IC50 stood at 20 nM.

For `COc1ccc(-c2cncc(C#N)c2Nc2ccc3[nH]ccc3c2)cc1OCCCl` [Compound 178, 5-[3-(2-chloroethoxy)-4-methoxyphenyl]-4-(1H-indol-5-ylamino)nicotinonitrile], the IC50 stood at 110 nM.

As to `CCN(CC)CCOc1cc(-c2cncc(C#N)c2Nc2ccc3[nH]ccc3c2)ccc1OC` [Compound 179, 5-{3-[2-(diethylamino)ethoxy]-4-methoxyphenyl}-4-(1H-indol-5-ylamino)nicotinonitrile], the IC50 is 410 nM.

Regarding `COc1ccc(-c2cncc(C#N)c2Nc2ccc3[nH]ccc3c2)cc1OCCN(C(C)C)C(C)C` [Compound 180, 5-{3-[2-(diisopropylamino)ethoxy]-4-methoxyphenyl}-4-(1H-indol-5-ylamino)nicotinonitrile], the IC50 is 690 nM.

With `COc1ccc(-c2cncc(C#N)c2Nc2ccc3[nH]ccc3c2)cc1OCCNCc1ccccc1` [Compound 181, 5-{3-[2-(benzylamino)ethoxy]-4-methoxyphenyl}-4-(1H-indol-5-ylamino)nicotinonitrile], the IC50 stood at 39 nM.

Values taken from patent publication US7781591B2, “Substituted 3-cyanopyridines as protein kinase inhibitors” (Wyeth LLC, priority 2006, dated 2010).
